{
  "source": "patent US20220071880A1",
  "about": "“METHODS FOR TREATING CUTANEOUS AGING” (Applied Therapeutics, Inc., priority 2019, published 2022)",
  "assay_type_in_all_cases": "cell-based",
  "key": {"[1]": {"system": "Cultured human skin cells (keratinocytes)", "assay": "Cytosolic reactive oxygen species by dihydroethidium (DHE) staining in H2O2-exposed cultured keratinocytes", "excerpt": "FIGS. 1A and 1B are fluorescence images of cultured human skin (keratinocytes) that were exposed to H2O2 to cause oxidative stress. The cells were analyzied for cytosolic reactive oxygen species by staining with dihydroethidium (DHE). FIG. 1A depicts the skin cell damage in the presence of H2O2 as assessed by DHE staining, and the presence of cytosolic reactive oxygen species is shown by fluorescence.\n(§1) Cultured human skin cells (keratinocytes) were exposed to H2O2, which causes oxidative damage to simulate the aging process, in the presence of Compound A (at 0.18 nM concentration) or vehicle control. The cultured cells were then assessed for cytosolic reactive oxygen species via Dihydroethidium (DHE) staining (FIG. 1A and FIG. 1B) and for mitochondrial stress via Mitosox™ (a fluorgenic dye targeted to mitochondria in live cells and readily oxidized by superoxide to produce fluorescence, ThermoFisher Scientific) staining (FIG. 2A and FIG. 2B)."}, "[2]": {"system": "Cultured human skin cells (keratinocytes)", "assay": "Mitochondrial oxidative stress by Mitosox staining in H2O2-exposed cultured keratinocytes", "protocol": "FIGS. 2A and 2B are fluorescence images of cultured human skin (keratinocytes) that were exposed to H2O2 to cause oxidative stress. The cells were analyzied for mitochondrial stress by staining with Mitosox. FIG. 2A depicts the skin cell damage in the presence of H2O2 as assessed by Mitosox staining.\nas §1"}, "[3]": {"system": "cultured human keritinocytes", "assay": "Senescence-associated beta-galactosidase (SA-βgal) expression in H2O2-exposed cultured keratinocytes, cytochemical approach", "conditions": "human keratinocytes exposed to H2O2; Compound A at 0.18 nM vs vehicle control", "protocol": "Senescence-associated beta-galactosidase (SA-βgal) is a well-known biomarker of senescent cells in culture and in vivo. Debacq-Chainiaux et al., Nature Protocols 4, 1798-1806 (2009). In additional studies the cultured human keritinocytes that were exposed to H2O2 in the presence of Compound A (at 0.18 nM concentration) or vehicle control were analyzed for expression of SA-βgal using a cytochemical approach."}, "[4]": {"conditions": "human keratinocytes exposed to H2O2, Compound A at 0.18 nM vs vehicle control"}, "[5]": {"conditions": "same cultured human keratinocyte system, concentration not given"}},
  "note": "“Also recorded” adds a separate entry of the source.",
  "data": [
    {"smiles": "O=C(O)Cc1nn(Cc2nc3cc(C(F)(F)F)ccc3s2)c(=O)c2nccnc12", "note": "[Compound A]", "values": [
      {"measurement": "H2O2-induced cytosolic reactive oxygen species formation (DHE fluorescence)", "setting": "[1]; [4]", "value": "attenuated DHE fluorescence; also recorded: attenuated H2O2-induced cytosolic reactive oxygen species formation"},
      {"measurement": "H2O2-induced mitochondrial oxidative stress (Mitosox fluorescence)", "setting": "[2]; [4]", "value": "reduced Mitisox fluorescence; also recorded: reduced mitochondrial oxidative stress"},
      {"measurement": "H2O2-induced SA-βgal expression", "setting": "[3]", "value": "inhibited H2O2-induced SA-βgal"}
    ]},
    {"smiles": "O=C(O)Cc1nn(Cc2nc3cc(C(F)(F)F)ccc3s2)c(=O)c2cscc12", "note": "[Compound B]", "values": [
      {"measurement": "H2O2-induced cytosolic reactive oxygen species formation", "setting": "[1]; [5]", "value": "inhibited H2O2-induced cytosolic reactive oxygen species formation"},
      {"measurement": "H2O2-induced mitochondrial oxidative stress", "setting": "[2]; [5]", "value": "inhibited H2O2-induced cytosolic reactive oxygen species formation and mitochondrial oxidative stress"}
    ]}
  ]
}
